Among the test systems are SN12C renal; SNB-75 CNS; HCC-2998 colon; SF-268 CNS; NCI-H460 lung; UACC-62 melanoma; HT29 colon; DU-145 prostate; SK-OV-3 ovarian; UO-31 renal.
What all share (experiment): growth of human tumour cells (NCI), 48 h

Molecules are shown by their SMILES. Several values for one entry are separate records, joined by “and”; a condition that tells them apart may be missing. Equal entries are not always repeated.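 Briefly, cells in 96-well plates were exposed to five compound concentrations for 48 h, and endpoints were estimated by linear interpolation. Abbreviation: GI50, concentration required for 50% inhibition of growth. TGI marks complete inhibition of growth.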

Data on eight molecules can be found in PubChem BioAssay (NCI).

Consider `CC1=C[C@@H]2c3c(c(O)c(O)c4oc5cc(O)cc(O)c5c(=O)c34)[C@@H](c3cc(O)c(O)c4oc5cc(O)cc(O)c5c(=O)c34)[C@@H]2C(C)(C)C1`, for which the GI50 in the assay with SN12C renal was 3.91 µM; in the assay on SNB-75 CNS, 6.34 µM; in the assay on HCC-2998 colon, 3.87 µM; with SF-268 CNS, 3.25 µM; with NCI-H460 lung, 1.1 µM; with UACC-62 melanoma, 1.88 µM. Further, the GI50 with HT29 colon is 3.86 µM; in the assay on DU-145 prostate it was 5.53 µM; in the assay with SK-OV-3 ovarian it was 3.77 µM; in the assay with UO-31 renal, 3.83 µM. The TGI in the assay on SN12C renal was 23 µM; with SNB-75 CNS it was 20.5 µM; in the assay on HCC-2998 colon, 15.2 µM; in the assay with SF-268 CNS, 16.1 µM; in the assay on NCI-H460 lung, 8.31 µM; with UACC-62 melanoma, 5.72 µM. The TGI worked out at 14.8 µM with HT29 colon, 16.6 µM with DU-145 prostate, 14.6 µM in the assay on SK-OV-3 ovarian and 16.3 µM in the assay on UO-31 renal.

For the molecule `CSc1nc(SC)c2c(C)cn(COCCOC(=O)c3ccccc3)c2n1`, the TGI in the assay with SN12C renal, in the assay on SNB-75 CNS, with HCC-2998 colon, in the assay with SF-268 CNS, in the assay on NCI-H460 lung and in the assay on UACC-62 melanoma was greater than 100 µM throughout. Moreover, the TGI in the assay on HT29 colon, in the assay on DU-145 prostate, with SK-OV-3 ovarian and in the assay with UO-31 renal was greater than 100 µM in each case.

Take `COc1ccc(-c2[nH]ncc2Nc2cc(OC)c(OC)c(OC)c2)cc1`: the GI50 in the assay with SN12C renal is 7.18 µM; in the assay with SNB-75 CNS, 1.52 µM; with HCC-2998 colon, 2.17 µM; in the assay on SF-268 CNS it was 6.83 µM; in the assay on NCI-H460 lung, 2.68 µM; in the assay on UACC-62 melanoma, 0.704 µM. For the same molecule, the GI50 in the assay on HT29 colon is 0.482 µM; with DU-145 prostate it was 4 µM; with SK-OV-3 ovarian it was 3.09 µM; with UO-31 renal, 3.29 µM. In addition, the TGI in the assay on SN12C renal is greater than 100 µM; in the assay with SNB-75 CNS, greater than 100 µM; in the assay on HCC-2998 colon, 37.9 µM; in the assay on SF-268 CNS it was greater than 100 µM; in the assay on NCI-H460 lung it was greater than 63.6 µM; in the assay with UACC-62 melanoma, 69.8 µM. Further, the TGI in the assay on HT29 colon is greater than 100 µM; with DU-145 prostate it was 64.1 µM; in the assay with SK-OV-3 ovarian, greater than 77.8 µM; in the assay on UO-31 renal, greater than 100 µM.

Consider `Cn1c(I)c(C#C[Si](C)(C)C)c(=O)[nH]c1=O`, for which the GI50 in the assay with SN12C renal is 6.66 µM; in the assay on SNB-75 CNS, 15.2 µM; with HCC-2998 colon, 2.32 µM; in the assay with SF-268 CNS, 2.79 µM; in the assay on NCI-H460 lung, 19.7 µM; in the assay on UACC-62 melanoma, 6.4 µM. Moreover, the GI50 in the assay on HT29 colon was 2.41 µM; in the assay with DU-145 prostate, 4.11 µM; with SK-OV-3 ovarian it was 17.2 µM; in the assay on UO-31 renal, 16.8 µM. Further, the TGI with SN12C renal worked out at 20.5 µM; in the assay on SNB-75 CNS, 29.3 µM; in the assay on HCC-2998 colon it was 4.59 µM; in the assay on SF-268 CNS it was 8.85 µM; in the assay with NCI-H460 lung, 41.3 µM; in the assay on UACC-62 melanoma, 19.8 µM. For the same molecule, the TGI in the assay on HT29 colon worked out at 5.64 µM; in the assay on DU-145 prostate, 15.1 µM; with SK-OV-3 ovarian, 30.9 µM; in the assay with UO-31 renal, 32.4 µM.

Consider `COc1cc(C(=O)O[C@H](C(=O)NCCCCNC(=O)[C@@H](OC(=O)c2cc(OC)cc3c(C)cccc23)[C@]2(C)CO2)[C@]2(C)CO2)c2cccc(C)c2c1`, for which the GI50 was 0.885 µM in the assay with SN12C renal; 0.114 µM in the assay with SNB-75 CNS; 0.0442 µM with HCC-2998 colon; 0.0101 µM in the assay with SF-268 CNS; less than 0.0354 µM with NCI-H460 lung; 1.5 µM with UACC-62 melanoma. In addition, the figures for the GI50 in the assay on HT29 colon, with SK-OV-3 ovarian and in the assay with UO-31 renal were 0.104 µM, 0.703 µM and 0.466 µM, respectively. In addition, the TGI with SN12C renal was found to be 2.39 µM; with SNB-75 CNS, 0.373 µM; in the assay with HCC-2998 colon, 0.343 µM; in the assay with SF-268 CNS it was 0.0619 µM; in the assay on NCI-H460 lung, 0.228 µM; with UACC-62 melanoma, 3.64 µM. In addition, the TGI in the assay with HT29 colon was greater than 100 µM; with DU-145 prostate, 0.352 µM; in the assay with SK-OV-3 ovarian, 6.19 µM; in the assay on UO-31 renal, greater than 100 µM.

Turning to `CNc1cc(-c2cccc(OC(F)(F)F)c2)nc2ccc(N3CCCC3)cc12`, the GI50 with SN12C renal was 1.76 µM and 1.68 µM and 1.71 µM; with SNB-75 CNS, 1.7 µM and 1.48 µM; with HCC-2998 colon, 1.93 µM and 1.94 µM and 1.75 µM; in the assay on SF-268 CNS, 1.94 µM and 1.88 µM and 1.87 µM; in the assay on NCI-H460 lung it was 1.6 µM and 1.75 µM; in the assay with UACC-62 melanoma it was 1.75 µM and 1.76 µM and 1.7 µM. Also, the GI50 is 1.31 µM and 1.61 µM and 1.54 µM in the assay on HT29 colon; 1.61 µM and 1.84 µM and 1.88 µM in the assay on DU-145 prostate; 1.66 µM and 1.67 µM and 1.74 µM with SK-OV-3 ovarian; 1.36 µM and 1.32 µM and 1.42 µM with UO-31 renal. The TGI in the assay on SN12C renal is 3.36 µM and 3.14 µM and 3.26 µM; in the assay on SNB-75 CNS, 3.12 µM and 2.93 µM; in the assay with HCC-2998 colon it was 3.5 µM and 3.48 µM and 3.23 µM; in the assay on SF-268 CNS, 3.51 µM and 3.77 µM; with NCI-H460 lung it was 3.07 µM and 3.44 µM; with UACC-62 melanoma, 3.36 µM and 3.16 µM and 3.18 µM. The TGI was 2.69 µM and 3.06 µM and 3.01 µM in the assay with HT29 colon; 3.12 µM and 3.5 µM and 3.4 µM in the assay with DU-145 prostate; 3.04 µM and 3.03 µM and 3.14 µM with SK-OV-3 ovarian; 2.67 µM and 2.61 µM and 2.74 µM with UO-31 renal.

Turning to `CC(=O)c1c(C)c2cnc(Nc3ccc(N4CCNCC4)cn3)nc2n(C2CCCC2)c1=O`, the GI50 with SN12C renal is 7.37 µM; in the assay on SNB-75 CNS, 10.7 µM; in the assay with HCC-2998 colon it was 10.6 µM; in the assay with SF-268 CNS, 10.7 µM; in the assay on NCI-H460 lung, 1.79 µM; in the assay on UACC-62 melanoma, 11 µM. The GI50 is 0.969 µM in the assay on HT29 colon, 9.82 µM in the assay on DU-145 prostate, 9.73 µM in the assay on SK-OV-3 ovarian and 2.6 µM in the assay on UO-31 renal. The TGI in the assay on SN12C renal turned out to be 21.6 µM; in the assay with SNB-75 CNS, 23.4 µM; with HCC-2998 colon, 23.9 µM; in the assay with SF-268 CNS, 25.3 µM; with NCI-H460 lung, 18.4 µM; in the assay with UACC-62 melanoma, 23.9 µM. Besides, the TGI was found to be 16.8 µM in the assay on HT29 colon, 21.7 µM in the assay with DU-145 prostate, 22.1 µM with SK-OV-3 ovarian and 20.1 µM with UO-31 renal.

As to `COC(=O)CC1=C(C)/C(=C/c2[nH]c(-c3ccc[nH]3)cc2OC)N=C1C`, the GI50 in the assay with SN12C renal was 0.458 µM; in the assay on SNB-75 CNS it was 0.137 µM; with HCC-2998 colon, 0.207 µM; with SF-268 CNS, 0.388 µM; in the assay on NCI-H460 lung, 0.179 µM; in the assay on UACC-62 melanoma it was 0.216 µM. Moreover, the GI50 in the assay on HT29 colon is 0.0375 µM; in the assay with DU-145 prostate it was 0.315 µM; in the assay on SK-OV-3 ovarian, 0.581 µM; with UO-31 renal, 0.187 µM. The TGI was 9.19 µM in the assay with SN12C renal; 2.16 µM with SNB-75 CNS; 6.07 µM in the assay with HCC-2998 colon; 10.9 µM in the assay with SF-268 CNS; 2.2 µM in the assay on NCI-H460 lung; 0.56 µM in the assay on UACC-62 melanoma. The TGI is 1.19 µM in the assay with HT29 colon, 12.8 µM in the assay on DU-145 prostate, 4.19 µM with SK-OV-3 ovarian and 0.633 µM with UO-31 renal.
